The values below come from patent US5616342A, “Emulsioin suitable for administering a poorly water-soluble photosensitizing compound and use thereof” (PDT, Inc., priority 1995, dated 1997).

Data set [1] in a line: general health / adverse events after drug-emulsion treatment (Example 4). Type of data set: in vivo, Fischer 344 rats. To be noted: i.v. bolus in emulsion plus red light, 30 days. How it is done:
(§1) Fischer 344 rats, engrafted with transplantable, chemically-induced (FANFT) urothelial tumors, were treated with tin ethyl etiopurpurin (SnEt2) and red light (660 nm). SnEt2 was administered as a bolus injection via lateral tail vein, using the emulsion described by the present invention. Tumor response was assessed in groups of nine animals injected with one of four doses of drug and exposed to one of three different doses of light, as summarized in FIG. 1. Control animals received emulsion vehicle without drug. Animals were monitored for tumor re-growth, tissue changes at treatment site, and general health three times per week for a period of 30 days after light treatment.

How the values of data set [2] were obtained:
Mixtures of MCT oil, egg phospholipids, ethanol, and SnEt2 were incubated with different bile salts, all at 4.6 mM^1, under the same conditions described above in Example 1.

Data set [3] is described as follows: SnEt2 drug solubility in MCT oil with excipient combinations (Example 1). The following applies: invention emulsion.
Procedure: After incubating for 30 minutes at 55° C., the tubes stand overnight at room temperature (19°-22° C). The tubes are centrifuged to remove bulk precipitates, and supernatants are filtered through 0.45 μm nylon membrane to remove any undissolved drug. Aliquots of filtrate are then diluted in chloroform:isopropyl alcohol (1:1) for spectrophotometric determination of drug concentration (absorbance at 662 nm). Reference standards are prepared with known concentrations of SnEt2 in the same solvent.
Data set [4] deals with transplantable, FANFT-induced, urothelial tumors. Nature of the data set: photodynamic treatment of transplantable FANFT-induced urothelial tumors with SnEt2 emulsion and red light (Example 4). It counts as in vivo, Fischer 344 rats. The protocol:
as §1
By determining the number of tumor-free rats 30 days after each treatment, tumor dose-response curves for drug and light were generated, shown in FIG. 1.

For data set [5] the following is noted: pH 8.0. The protocol: In particular, net electronegative charge (Zeta potential) on the emulsified oil droplets is measured by changes in electrophoretic mobility at pH 8.0 (Malvern Zetasizer 2c). […] A relationship between Zeta potential and physical stability of colloidal systems has been documented.

On to `CCOC(=O)C1=Cc2c3nc(cc4nc(cc5[n-]c(cc6[n-]c2c(C)c6CC)c(C)c5CC)C(C)=C4CC)[C@@H](C)[C@]13CC.[Cl-].[Cl-].[Sn]` (racemic) [SnEt2, Tin ethyl etiopurpurin], for which, in data set [1], the adverse clinical events result is “No adverse clinical events were observed” and the “deaths attributable to drug-emulsion treatment” value is “no deaths occurred”. In addition, in data set [2], the “SnEt2 Concentration” value is listed as 1.26 mg/gm Oil and the “SnEt2 Concentration Normalized” value amounted to 1.00. Further, in data set [3], the “SnEt2 concentration delivered by the present invention relative to 0.08 mg/ml” value is on record as “over ten times”. For the same compound, in data set [4] (four drug doses, three light doses, 30 days), the “dose and light response by the tumor” value was “A dose and light response by the tumor was demonstrated”. The tumor treatment outcome in data set [4] (i.v. bolus in emulsion, red laser light 660 nm, 30 days after treatment) is “effective in the treatment”.
For the compound `C[C@H](CCC(=O)O)[C@H]1CC[C@H]2[C@@H]3[C@H](O)C[C@@H]4C[C@H](O)CC[C@]4(C)[C@H]3C[C@H](O)[C@]12C` [sodium cholate], the “effect on Zeta potential of phospholipid-stabilized emulsions” value in data set [5] is given as “increases the Zeta potential”.
